Data as given in ChEMBL document CHEMBL1201862, “PubChem BioAssay data set” (2004).
Calls of active or inactive are those of the source.

Experiments:
[1] = toxicity toward HepG2 liver cells – cell-based, plate reader, cherry-pick, antagonist series, cytotoxicity control, dose response (AID 743416); type: functional
[2] = target: Sphingosine 1-phosphate receptor 1 (Homo sapiens, UniProt P21453); type: functional;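 note: Tango beta-arrestin reporter U2OS cells stimulated with S1P near its EC80; inhibitor potency meaning antagonism of receptor activation by the natural agonist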
Sphingosine 1-phosphate receptor 1, sequence (P21453 whole entry): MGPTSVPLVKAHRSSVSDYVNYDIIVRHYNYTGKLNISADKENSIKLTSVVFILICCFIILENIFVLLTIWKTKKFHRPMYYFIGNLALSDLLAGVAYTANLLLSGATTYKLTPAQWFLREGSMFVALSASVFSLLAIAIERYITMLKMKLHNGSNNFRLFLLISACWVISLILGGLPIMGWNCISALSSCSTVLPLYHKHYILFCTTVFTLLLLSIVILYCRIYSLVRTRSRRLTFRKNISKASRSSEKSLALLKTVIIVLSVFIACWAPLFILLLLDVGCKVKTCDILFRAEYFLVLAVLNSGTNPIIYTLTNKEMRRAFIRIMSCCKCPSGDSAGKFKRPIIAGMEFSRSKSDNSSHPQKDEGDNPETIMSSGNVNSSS

[3] = Trypanosoma cruzi growth suppression in host cells – NIH3T3 host cells, beta-gal luminescence, confirmation (AID 2044); type: functional, cell-based;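 note: intracellular parasites grown in NIH/3T3 mouse fibroblasts as host cells; luminescent beta-galactosidase reporter signal from transgenic T. cruzi replicating inside host cells; inhibitors lower the luminescence signal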
[4] = NIH3T3 cell viability loss – ATP luminescence, mouse fibroblasts, counter-screen, dose response (AID 2010); type: functional, cell-based;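 note: cells exposed to compound for about 90 hours before reading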
[5] = blockers of bursicon-stimulated LGR2 cAMP reporter – cell-based, HEK293, CRE-luciferase reporter, cherry pick, set 2, dose response (AID 743343); type: functional;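 note: transfected cells were stimulated with diluted bursicon conditioned medium after compound addition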
[6] = target: Sphingosine 1-phosphate receptor 4 (Homo sapiens, UniProt O95977); assay: Fluorescence dose response cell-based high throughput screening assay for antagonists of the Sphingosine 1-Phosphate Receptor 4 (S1P4). [Related pubchem assays: 1524 (Confirmation in triplicates.), 1510 (Primary screen.)]; type: functional
Sphingosine 1-phosphate receptor 4, sequence (O95977 whole entry): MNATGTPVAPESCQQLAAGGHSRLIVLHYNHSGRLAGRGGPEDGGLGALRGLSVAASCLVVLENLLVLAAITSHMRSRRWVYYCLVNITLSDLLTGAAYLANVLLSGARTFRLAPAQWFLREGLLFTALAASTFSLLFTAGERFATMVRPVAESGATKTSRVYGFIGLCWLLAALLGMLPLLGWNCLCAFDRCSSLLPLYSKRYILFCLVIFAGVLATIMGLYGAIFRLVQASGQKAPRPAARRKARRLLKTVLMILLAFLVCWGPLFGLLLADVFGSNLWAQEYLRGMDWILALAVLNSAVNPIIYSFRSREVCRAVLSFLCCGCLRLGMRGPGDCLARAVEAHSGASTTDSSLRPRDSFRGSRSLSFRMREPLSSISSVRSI

[7] = blockade of melanocortin 4 receptor signaling – cell-based, plate reader, cherry pick, counter-screen for LGR2 antagonist project, dose response (AID 743444); type: functional;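 note: transfected HEK 293 cells stimulated with alpha-MSH peptide; potency of inhibitors of the alpha-MSH evoked signal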
[8] = A549 cell cytotoxicity, dose response, cytotoxicity control, plate reader, cherry-pick, antagonist series (AID 743412); type: functional, cell-based
[9] = target: T1, Microphthalmia-associated transcription factor (Homo sapiens, UniProt O75030); assay: reducers of TRPM1 reporter luminescence, concentration series – cell-based, SK-MEL-5, cherry-picked, set 3, MITF inhibitor project, dose response (AID 493073); type: functional;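 note: SK-MEL-5 melanoma cells with luciferase driven by the MITF target TRPM1 promoter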
T1 sequence (O75030 whole entry): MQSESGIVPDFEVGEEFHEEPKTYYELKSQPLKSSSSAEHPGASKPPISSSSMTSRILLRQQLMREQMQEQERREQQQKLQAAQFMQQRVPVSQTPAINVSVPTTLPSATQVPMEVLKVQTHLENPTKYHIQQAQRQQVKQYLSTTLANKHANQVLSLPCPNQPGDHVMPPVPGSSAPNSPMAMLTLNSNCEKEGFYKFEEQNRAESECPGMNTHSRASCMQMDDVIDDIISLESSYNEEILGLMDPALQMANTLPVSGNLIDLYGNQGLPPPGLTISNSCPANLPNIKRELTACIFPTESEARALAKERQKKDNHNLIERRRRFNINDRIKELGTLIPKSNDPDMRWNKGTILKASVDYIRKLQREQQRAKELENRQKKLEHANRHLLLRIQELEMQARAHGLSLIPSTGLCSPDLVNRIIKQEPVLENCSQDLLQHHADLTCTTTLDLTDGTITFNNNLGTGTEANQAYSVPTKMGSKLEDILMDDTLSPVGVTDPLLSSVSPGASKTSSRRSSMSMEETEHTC

Paired box protein Pax-8 = Paired box protein Pax-8 (Homo sapiens, UniProt Q06710); assay: PAX8 transcriptional activity inhibition in RMG-I – RMG-I cells, luciferase, cherry-pick, dose response (AID 687027); type: functional, cell-based;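 note: luciferase reporter driven by Pax8 target thyroperoxidase promoter measured by SteadyGlo luminescence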
Paired box protein Pax-8, sequence (Q06710 whole entry): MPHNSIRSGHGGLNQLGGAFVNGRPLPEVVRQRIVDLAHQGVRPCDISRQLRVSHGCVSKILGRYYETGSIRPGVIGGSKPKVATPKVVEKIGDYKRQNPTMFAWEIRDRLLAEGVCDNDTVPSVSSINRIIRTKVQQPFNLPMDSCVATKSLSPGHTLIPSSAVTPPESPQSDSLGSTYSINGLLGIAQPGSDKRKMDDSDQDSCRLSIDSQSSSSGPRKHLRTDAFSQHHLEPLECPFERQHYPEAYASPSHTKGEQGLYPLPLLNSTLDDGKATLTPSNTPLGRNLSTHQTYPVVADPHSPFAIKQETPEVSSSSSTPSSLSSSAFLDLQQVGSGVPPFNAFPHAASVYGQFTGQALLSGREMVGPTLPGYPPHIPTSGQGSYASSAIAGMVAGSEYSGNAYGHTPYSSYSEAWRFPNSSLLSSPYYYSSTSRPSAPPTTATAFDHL

[10] = reduced cellular PGC1a acetyl-lysine signal – cell-based, cherry-picked samples, dose response (AID 720514); type: functional;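 note: potency may reflect raised or lowered acetylation signal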
[11] = viability loss in HEK293 cells – cell-based, plate reader, cherry-picked samples, cytotoxicity control, dose response (AID 743446); type: functional
[12] = general mammalian cell viability loss – activator set, cherry-pick, cytotoxicity control for miR-122 modulator project, dose response (AID 720690); type: functional, cell-based;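 note: HEK293T human cells scored for general mammalian cytotoxicity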
[13] = target: T2, Kappa-type opioid receptor (Homo sapiens, UniProt P41145); type: functional
T2 sequence (P41145 whole entry): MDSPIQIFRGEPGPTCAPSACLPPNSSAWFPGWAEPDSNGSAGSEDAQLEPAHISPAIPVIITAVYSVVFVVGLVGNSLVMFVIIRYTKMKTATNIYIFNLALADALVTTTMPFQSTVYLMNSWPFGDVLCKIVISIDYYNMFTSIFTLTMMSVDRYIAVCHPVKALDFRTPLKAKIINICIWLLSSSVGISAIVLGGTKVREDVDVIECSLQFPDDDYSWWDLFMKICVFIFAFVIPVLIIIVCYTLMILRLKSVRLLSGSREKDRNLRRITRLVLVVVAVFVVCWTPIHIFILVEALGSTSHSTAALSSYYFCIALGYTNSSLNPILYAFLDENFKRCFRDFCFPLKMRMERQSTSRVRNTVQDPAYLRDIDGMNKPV

[14] = target: T2, Kappa-type opioid receptor; type: functional; remark: listed apart in the source
Protein RecA = target: T3, Protein RecA (Mycobacterium tuberculosis, UniProt P9WHJ3); assay: Fluorescence Cell-Free Homogeneous Dose Retest to Identify Inhibitors of RecA-Intein Splicing Activity. [Related pubchem assays (depositor defined):AID2097, AID2223, AID489010, AID492950]; type: functional
T3 sequence (P9WHJ3 whole entry): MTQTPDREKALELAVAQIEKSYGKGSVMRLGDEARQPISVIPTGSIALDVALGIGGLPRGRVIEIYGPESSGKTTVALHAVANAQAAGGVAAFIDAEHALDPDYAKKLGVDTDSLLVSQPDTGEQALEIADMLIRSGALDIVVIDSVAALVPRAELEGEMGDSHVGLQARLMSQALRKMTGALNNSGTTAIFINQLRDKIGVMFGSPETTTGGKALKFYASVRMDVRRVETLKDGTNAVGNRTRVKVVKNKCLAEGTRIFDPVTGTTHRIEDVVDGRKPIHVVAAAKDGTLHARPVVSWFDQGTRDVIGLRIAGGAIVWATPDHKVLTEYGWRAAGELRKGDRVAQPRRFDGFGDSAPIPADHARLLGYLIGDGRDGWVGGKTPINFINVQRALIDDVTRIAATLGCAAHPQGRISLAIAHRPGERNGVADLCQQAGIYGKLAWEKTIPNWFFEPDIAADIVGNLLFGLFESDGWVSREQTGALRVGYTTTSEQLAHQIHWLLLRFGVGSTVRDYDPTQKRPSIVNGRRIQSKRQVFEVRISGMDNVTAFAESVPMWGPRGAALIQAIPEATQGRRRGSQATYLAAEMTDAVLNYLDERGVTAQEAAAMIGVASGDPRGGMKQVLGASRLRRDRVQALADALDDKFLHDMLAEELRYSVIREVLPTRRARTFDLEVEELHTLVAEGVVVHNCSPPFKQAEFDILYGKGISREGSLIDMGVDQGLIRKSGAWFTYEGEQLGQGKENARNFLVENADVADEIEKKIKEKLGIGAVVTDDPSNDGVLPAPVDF

[15] = target: T4, Type-1 angiotensin II receptor (Homo sapiens, UniProt P30556); assay: antagonism of angiotensin II type 1 receptor – cell-based, uHTS hits, selectivity assay for APJ receptor antagonist project, dose response (AID 463214); type: functional;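 note: antagonist potency against angiotensin II stimulated AT1 response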
T4 sequence (P30556 whole entry): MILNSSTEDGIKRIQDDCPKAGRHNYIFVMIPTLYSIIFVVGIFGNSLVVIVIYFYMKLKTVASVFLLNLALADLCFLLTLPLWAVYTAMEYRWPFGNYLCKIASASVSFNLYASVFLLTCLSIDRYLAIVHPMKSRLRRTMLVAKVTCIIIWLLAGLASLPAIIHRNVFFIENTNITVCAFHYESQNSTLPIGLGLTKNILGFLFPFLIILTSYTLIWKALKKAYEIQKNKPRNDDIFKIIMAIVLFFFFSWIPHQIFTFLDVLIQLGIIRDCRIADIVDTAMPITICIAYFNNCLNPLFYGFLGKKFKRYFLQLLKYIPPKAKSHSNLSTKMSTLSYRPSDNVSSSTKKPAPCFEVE

[16] = activation of miR-122 Renilla sensor silencing – cell-based, Huh7 psiCHECK-miR122, Renilla luciferase, cherry-picked, dose response (AID 651956); type: functional;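 note: huh7 hepatoma cells stably carrying a psiCHECK-2 miR-122 sensor plasmid; renilla luciferase signal reporting endogenous miR-122 activity after 48 h compound exposure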
Beta Lactamase = Beta Lactamase (Pseudomonas aeruginosa, UniProt Q932Y6); assay: BLA reporter interference, concentration series – BLA reporter cells, FRET fluorescence, artefact control for TLR9-MyD88 binding inhibitor project, dose response (AID 588341); type: cell-based;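 note: cell based assay in CHO-K1 cells stably expressing beta-lactamase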
Beta Lactamase, sequence (Q932Y6 whole entry): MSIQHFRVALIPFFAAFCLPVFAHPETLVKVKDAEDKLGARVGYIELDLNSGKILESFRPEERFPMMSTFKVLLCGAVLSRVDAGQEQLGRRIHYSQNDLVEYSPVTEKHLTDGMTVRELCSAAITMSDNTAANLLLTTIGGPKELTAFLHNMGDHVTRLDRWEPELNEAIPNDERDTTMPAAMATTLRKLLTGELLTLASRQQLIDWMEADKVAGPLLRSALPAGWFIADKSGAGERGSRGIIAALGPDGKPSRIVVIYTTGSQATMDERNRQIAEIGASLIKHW

Beta-galactosidase [17] = target: T5, Beta-galactosidase (Escherichia coli, UniProt Q8VNN2); type: functional
T5 sequence (Q8VNN2 whole entry): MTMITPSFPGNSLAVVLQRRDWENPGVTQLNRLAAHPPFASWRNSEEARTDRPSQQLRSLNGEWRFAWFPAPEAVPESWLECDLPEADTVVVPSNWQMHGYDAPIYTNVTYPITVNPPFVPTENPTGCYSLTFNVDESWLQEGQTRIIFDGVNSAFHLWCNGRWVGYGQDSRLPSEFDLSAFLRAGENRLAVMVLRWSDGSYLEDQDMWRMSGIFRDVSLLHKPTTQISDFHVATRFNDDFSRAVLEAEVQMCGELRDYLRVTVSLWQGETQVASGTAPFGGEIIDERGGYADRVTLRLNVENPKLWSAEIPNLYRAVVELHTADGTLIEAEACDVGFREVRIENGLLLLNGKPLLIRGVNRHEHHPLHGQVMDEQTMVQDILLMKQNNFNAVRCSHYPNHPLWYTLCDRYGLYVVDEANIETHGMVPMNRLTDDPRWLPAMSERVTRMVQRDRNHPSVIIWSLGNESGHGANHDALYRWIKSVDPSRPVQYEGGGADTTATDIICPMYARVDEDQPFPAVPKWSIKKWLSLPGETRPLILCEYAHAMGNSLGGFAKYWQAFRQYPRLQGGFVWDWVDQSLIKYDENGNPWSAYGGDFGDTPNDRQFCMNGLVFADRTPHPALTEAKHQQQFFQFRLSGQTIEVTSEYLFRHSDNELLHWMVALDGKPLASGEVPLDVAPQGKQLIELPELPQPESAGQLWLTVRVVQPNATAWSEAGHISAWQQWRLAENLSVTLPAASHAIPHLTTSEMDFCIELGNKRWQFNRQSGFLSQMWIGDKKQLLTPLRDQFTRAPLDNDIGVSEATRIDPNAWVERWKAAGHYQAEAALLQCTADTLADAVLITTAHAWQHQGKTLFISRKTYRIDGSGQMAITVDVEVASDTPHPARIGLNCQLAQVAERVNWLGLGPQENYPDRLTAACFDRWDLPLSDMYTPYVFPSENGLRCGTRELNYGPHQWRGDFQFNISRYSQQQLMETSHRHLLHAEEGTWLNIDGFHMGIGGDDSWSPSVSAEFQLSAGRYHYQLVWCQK

[18] = target: T6, Replicative DNA helicase DnaB (Mycobacterium tuberculosis, UniProt P9WMR3); assay: DnaB intein splicing inhibitors, dose response, biochemical, cell-free fluorescence (AID 449749); type: functional
T6 sequence (P9WMR3 whole entry): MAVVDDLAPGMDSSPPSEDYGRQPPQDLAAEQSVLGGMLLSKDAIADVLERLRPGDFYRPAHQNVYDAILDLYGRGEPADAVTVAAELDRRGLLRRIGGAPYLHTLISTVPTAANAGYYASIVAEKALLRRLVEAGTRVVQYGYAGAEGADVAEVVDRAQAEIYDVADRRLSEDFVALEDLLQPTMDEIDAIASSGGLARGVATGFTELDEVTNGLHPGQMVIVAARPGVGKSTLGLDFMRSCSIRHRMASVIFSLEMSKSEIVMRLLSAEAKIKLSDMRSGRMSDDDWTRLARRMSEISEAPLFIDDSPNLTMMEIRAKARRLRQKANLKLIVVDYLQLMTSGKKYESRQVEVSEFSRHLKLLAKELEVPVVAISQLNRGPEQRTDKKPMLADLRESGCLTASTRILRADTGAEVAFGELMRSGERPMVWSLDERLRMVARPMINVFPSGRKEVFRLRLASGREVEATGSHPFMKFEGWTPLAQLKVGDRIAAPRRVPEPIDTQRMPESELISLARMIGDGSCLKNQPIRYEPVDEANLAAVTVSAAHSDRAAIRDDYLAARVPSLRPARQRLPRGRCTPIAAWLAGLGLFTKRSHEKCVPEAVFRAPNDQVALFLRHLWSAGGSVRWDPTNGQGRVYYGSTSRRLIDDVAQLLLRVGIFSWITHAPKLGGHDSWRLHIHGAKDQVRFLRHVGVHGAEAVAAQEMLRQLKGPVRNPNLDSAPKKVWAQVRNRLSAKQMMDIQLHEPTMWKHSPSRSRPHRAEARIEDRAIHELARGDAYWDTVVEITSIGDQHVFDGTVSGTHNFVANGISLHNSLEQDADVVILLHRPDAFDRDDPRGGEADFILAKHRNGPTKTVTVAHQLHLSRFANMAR

[19] = target: T7, Heat shock factor protein 1 (Mus musculus, UniProt P38532); assay: enhancement of HSF1-driven luciferase signal – cell-based, NIH3T3, luminescence, dose retest, confirmation (AID 435004); type: functional;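 note: stress induced by proteasome inhibitor MG132 added 30 min after compound; luciferase reporter driven by HSF1 response element in NIH3T3 cells; actives raise luminescence as potentiators of the MG132 stress response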
T7 sequence (P38532 whole entry): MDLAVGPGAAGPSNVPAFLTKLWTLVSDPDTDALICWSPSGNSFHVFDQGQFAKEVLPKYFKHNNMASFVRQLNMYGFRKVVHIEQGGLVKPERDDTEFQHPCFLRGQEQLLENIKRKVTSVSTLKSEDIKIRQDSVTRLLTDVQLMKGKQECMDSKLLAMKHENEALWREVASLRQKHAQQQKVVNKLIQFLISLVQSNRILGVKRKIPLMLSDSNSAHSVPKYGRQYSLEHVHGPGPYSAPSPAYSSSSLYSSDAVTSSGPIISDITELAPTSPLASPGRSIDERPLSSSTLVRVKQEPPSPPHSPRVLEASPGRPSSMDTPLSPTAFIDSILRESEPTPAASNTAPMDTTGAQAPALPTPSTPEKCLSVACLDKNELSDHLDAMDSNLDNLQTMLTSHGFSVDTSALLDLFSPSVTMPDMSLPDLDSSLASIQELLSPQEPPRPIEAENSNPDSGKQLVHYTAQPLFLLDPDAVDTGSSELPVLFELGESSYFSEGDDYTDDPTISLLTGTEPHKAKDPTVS

Beta-galactosidase [20] = target: T5, Beta-galactosidase; assay: PubChem AID 485352; type: functional
[21] = general mammalian cell viability loss – inhibitor set, cherry-pick, set 2, cytotoxicity control for miR-122 modulator project, dose response (AID 720697); type: functional, cell-based
CHO = CHO cell viability loss, potency – luminescence, cytotoxicity control for TLR9-MyD88 binding inhibitor project, dose response (AID 588339); type: functional, cell-based, hamster; settings: Cricetulus griseus;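 note: CHO cells stably coexpressing TLR9 and MyD88 fusions from primary screen; compound exposure lasted 48 hours before viability readout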
INS1 = assay: INS-1E survival protection against cytokine death – cell-based, luminescence, retest, dose response (AID 449756); type: functional; settings: Rattus norvegicus;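 note: cell death triggered by IL-1 beta plus TNF-alpha plus IFN-gamma mixture; protective hits raise ATP signal compared with cytokine alone wells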
NS3 = NS3 (Hepatitis C virus, UniProt A3EZJ3); assay: PubChem AID 2173; parameters: species or system Hepacivirus hominis
NS3, sequence (A3EZJ3 whole entry): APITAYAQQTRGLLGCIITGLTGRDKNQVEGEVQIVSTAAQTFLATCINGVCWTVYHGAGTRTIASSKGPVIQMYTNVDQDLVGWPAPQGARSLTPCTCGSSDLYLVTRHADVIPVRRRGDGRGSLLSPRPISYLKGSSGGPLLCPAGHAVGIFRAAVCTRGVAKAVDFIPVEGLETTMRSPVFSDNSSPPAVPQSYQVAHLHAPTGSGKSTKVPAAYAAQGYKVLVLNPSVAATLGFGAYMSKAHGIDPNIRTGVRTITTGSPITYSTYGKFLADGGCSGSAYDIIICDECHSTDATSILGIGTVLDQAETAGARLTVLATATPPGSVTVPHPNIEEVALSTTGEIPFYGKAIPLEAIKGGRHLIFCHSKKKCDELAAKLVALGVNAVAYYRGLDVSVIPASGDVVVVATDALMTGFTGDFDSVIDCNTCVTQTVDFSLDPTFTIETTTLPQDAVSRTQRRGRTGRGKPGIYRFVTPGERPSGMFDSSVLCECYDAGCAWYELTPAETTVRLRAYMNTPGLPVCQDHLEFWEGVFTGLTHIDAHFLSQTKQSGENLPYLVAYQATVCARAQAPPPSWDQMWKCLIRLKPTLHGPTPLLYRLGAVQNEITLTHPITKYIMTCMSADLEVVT

[22] = target: T8, Corticotropin-releasing factor receptor 2/Corticotropin-releasing factor-binding protein (Homo sapiens, UniProt P24387+Q13324); assay: activators of CRF receptor 2 with binding protein – uHTS hits, confirmation (AID 602473); type: functional; settings: read-out: EC50_Mean
T8 sequence (Q13324 whole entry): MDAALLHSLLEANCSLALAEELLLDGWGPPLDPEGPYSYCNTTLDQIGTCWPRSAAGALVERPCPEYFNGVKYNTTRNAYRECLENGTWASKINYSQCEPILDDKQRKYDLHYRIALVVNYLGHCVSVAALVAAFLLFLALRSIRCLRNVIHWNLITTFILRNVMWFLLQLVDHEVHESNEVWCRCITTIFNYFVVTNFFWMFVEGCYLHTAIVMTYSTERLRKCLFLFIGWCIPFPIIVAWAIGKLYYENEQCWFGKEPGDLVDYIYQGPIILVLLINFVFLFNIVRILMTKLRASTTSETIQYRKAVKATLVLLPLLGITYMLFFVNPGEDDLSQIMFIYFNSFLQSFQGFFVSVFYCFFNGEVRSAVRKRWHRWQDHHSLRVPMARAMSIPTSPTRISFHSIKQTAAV
T8 sequence (P24387 whole entry): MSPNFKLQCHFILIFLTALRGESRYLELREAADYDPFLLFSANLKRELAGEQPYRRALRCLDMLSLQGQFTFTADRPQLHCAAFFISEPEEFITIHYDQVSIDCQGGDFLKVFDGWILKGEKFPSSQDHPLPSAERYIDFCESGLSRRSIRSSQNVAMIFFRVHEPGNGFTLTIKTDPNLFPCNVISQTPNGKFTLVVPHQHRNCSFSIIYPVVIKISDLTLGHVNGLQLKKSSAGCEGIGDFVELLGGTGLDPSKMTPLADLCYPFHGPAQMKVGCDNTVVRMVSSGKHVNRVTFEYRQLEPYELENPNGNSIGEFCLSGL

Compound: O=C1CN(C(=O)Cn2ncc(Cl)c(Cl)c2=O)c2ccccc2N1
- AC50 [1]: 25.6 µM (active)
- IC50 [2]: 13.6 µM (not active)
- EC50 [3]: 2.11 µM (active)
- EC50 [4]: 2.61 µM (active)
- AC50 [5]: 18.7 µM (active)
- IC50 [6]: 3.18 µM (active)
- AC50 [7]: 15.4 µM (active)
- AC50 [8]: 11.8 µM (active)
- AC50 [9]: 8.67 µM (active)
- AC50 (Paired box protein Pax-8): 2.19 µM (active)
- AC50 [10]: 4.16 µM (active)
- AC50 [11]: 8.59 µM (active)

Compound: CCn1c(Cl)c(C=O)s/c1=N\S(=O)(=O)c1ccccc1
- AC50 [12]: 3.2 µM (active)
- IC50 [13]: 4.85 µM
- IC50 [14]: 11.8 µM (active)
- IC50 [2]: 7.5 µM (active)
- EC50 (Protein RecA): 1.3 µM (active)
- IC50 [6]: 1.48 µM (active)
- IC50 [15]: 2.24 µM (active)
- AC50 [16]: 7.8 µM (active)
- IC50 (Beta Lactamase): 12.5 µM (inactive)
- EC50 (Beta-galactosidase [17]): > 31.5 µM (inactive)
- AC50 [18]: 18.2 µM (active)
- EC50 [19]: > 260 µM (inconclusive)
- EC50 (Beta-galactosidase [20]): > 40 µM (inactive)
- AC50 [21]: 1.84 µM (active)
- IC50 (CHO): 0.952 µM (active)
- AC50 (INS1): 5.12 µM (active)

Compound: Cc1cccc(N2C(=O)C(O)=C(C(=O)c3cccs3)C2c2ccc(C(C)C)cc2)n1 (stereo unspecified)
- IC50 (NS3): 5.88 µM (active)
- EC50 [22]: 11.3 µM (active)
- EC50 [19]: > 260 µM (inactive)
